Read-outs that look alike come from different tables or passages of the source. Blank lines part the entries; values can stand above or below the compound they belong to.
Key:
[1] = system: Wnt-responsive Sp5-Luc reporter in SW480 colon carcinoma cells; assay: Wnt activity screening assay (Sp5-Luc reporter); assay type: cell-based; conditions: Homo sapiens
Excerpt: The screening assay for Wnt activity is described as follows. Reporter cell lines can be generated by stably transducing cancer cell lines (e.g., colon cancer) or primary cells (e.g., IEC-6 intestinal cells) with a lentiviral construct that includes a Wnt-responsive promoter driving expression of the firefly luciferase gene.
SW480 colon carcinoma cells were transduced with a lentiviral vector expressing luciferase with a human Sp5 promoter consisting of a sequence of eight TCF/LEF binding sites. […] These stably transduced SW480 cells were expanded in cell culture and used for all further screening activities. […] For Sp5-Luc reporter gene assays, the cells were plated at 4,000 cells/well in 384-well plates with a DMEM medium containing 1% fetal bovine serum, and 1% Penicillin-Streptomycin and incubated for 36 to 48 hours at 37° C. and 5% CO2. Following incubation, 15 μL of BriteLite Plus luminescence reagent (Perkin Elmer) was added to each well of the 384-well assay plates. The plates were placed on an orbital shaker for 2 min and then luminescence was quantified using the Envision (Perkin Elmer) plate reader.

[2] = system: SW480 colorectal cancer cells; assay: Gene expression qRT-PCR in SW480 cells; assay type: cell-based; conditions: Homo sapiens
Procedure: SW480 colorectal cancer cells were plated at 1×10^4 cells per well into 96-well plates (Olympus). Compounds were diluted in cell culture media and added to the cells at a final concentration of 3 μM. Cells were treated with vehicle (DMSO) and compounds for 24 hours. N=3 biological replicates per conditions.
Following treatment, cells were lysed, and cDNA was generated using the Fastlane Cell cDNA Kit (Qiagen).
384-well PCR plates with pre-spotted primers for CLK1, CLK2, CLK3, DVL2, LRP5, SRSF1, SRSF3, SRSF4, SRSF5, TCF7, TCF7L2 were ordered from Bio-Rad. The generated cDNA, along with a SYBR Green qRT-PCR master mix (SsoAdvanced™ Universal SYBR® Green Supermix, Bio-Rad) was added to the PCR plates.
qRT-PCR was performed on the plates using a CFX384 Touch™ Real-Time PCR Detection System (Bio-Rad) with the manufacturer's recommended thermal cycling conditions.
Data from the qRT-PCR assay was normalized to the GAPDH and HPRT1 housekeeping genes and set gene expression fold change was set relative to vehicle-treated cells using the ΔΔCt analysis method.

CLK2 = biological target: T1, CLK2 (Homo sapiens, UniProt P49760); assay: CLK2 kinase activity assay (Z-lyte, Ser/Thr 6 peptide); assay type: biochemical
T1 construct: purchased Thermo Fisher (Life Technologies), Z'-LYTE Kinase Assay Kits
Procedure: All reactions were performed in duplicate.

CLK3 = CLK3 (Homo sapiens, UniProt P49761); assay: CLK3 kinase activity assay (Z-lyte, Ser/Thr 18 peptide)
Procedure: Each compound was dissolved in DMSO as a 10 mM stock and used to prepare compound source plates.
This is a non-radioactive assay using fluorescence resonance energy transfer (FRET) between coumarin and fluorescein to detect kinase activity which is represented as a ratio of coumarin emission/fluorescein emission.
All reactions were performed in duplicate. Unphosphorylated (“0% Control”) and phosphorylated (“100% control”) forms of Ser/Thr 18 served as control reactions. Additionally, an 11-point dose-response curve of Staurosporine (1 uM top) was run to serve as a positive compound control.
After incubation, Development Reagent A was diluted in Development Buffer then added to the reaction and allowed to further incubate for one hour at room temperature.
Dose-response curves were generated and inhibitory concentration (IC50) values were calculated using non-linear regression curve fit in the Dotmatics' Studies Software (Bishops Stortford, UK).
Compounds were acoustically transferred on 1536-well plates (Echo 550, LabCyte) instrument. Kinase, peptide, and ATP reagents from the Z′-LYTE Kinase Assay Kits (Thermo Fisher) were dispensed onto the compound plates using an EL406 liquid dispenser (BioTek). Plates were incubated in the dark at room temperature for 1 hr. Development reagent was added to the plates and then incubated in the dark at room temperature for 1 hr. Fluorescence signal form the plate was then read using an EnVision Multilabel Plate Reader (Perkin Elmer).

[3] = SW480 Sp5-Luc reporter, 36 to 48 hours, read-out: EC50
[4] = SW480, 3 μM, 24 hours, relative to DMSO, read-out: gene expression fold change CLK1
[5] = SW480, 3 μM, 24 hours, relative to DMSO, read-out: gene expression fold change CLK2
[6] = SW480, 3 μM, 24 hours, relative to DMSO, read-out: gene expression fold change CLK3
[7] = SW480, 3 μM, 24 hours, relative to DMSO, read-out: gene expression fold change DVL2
[8] = SW480, 3 μM, 24 hours, relative to DMSO, read-out: gene expression fold change LRP5
[9] = SW480, 3 μM, 24 hours, relative to DMSO, read-out: gene expression fold change SRSF1
[10] = SW480, 3 μM, 24 hours, relative to DMSO, read-out: gene expression fold change SRSF3
[11] = SW480, 3 μM, 24 hours, relative to DMSO, read-out: gene expression fold change SRSF4
[12] = SW480, 3 μM, 24 hours, relative to DMSO, read-out: gene expression fold change SRSF5
[13] = SW480, 3 μM, 24 hours, relative to DMSO, read-out: gene expression fold change TCF7
[14] = SW480, 3 μM, 24 hours, relative to DMSO, read-out: gene expression fold change TCF7L2
[15] = recombinant CLK2 kinase, ATP 60 μM, read-out: EC50

T1 sequence (P49760 whole entry): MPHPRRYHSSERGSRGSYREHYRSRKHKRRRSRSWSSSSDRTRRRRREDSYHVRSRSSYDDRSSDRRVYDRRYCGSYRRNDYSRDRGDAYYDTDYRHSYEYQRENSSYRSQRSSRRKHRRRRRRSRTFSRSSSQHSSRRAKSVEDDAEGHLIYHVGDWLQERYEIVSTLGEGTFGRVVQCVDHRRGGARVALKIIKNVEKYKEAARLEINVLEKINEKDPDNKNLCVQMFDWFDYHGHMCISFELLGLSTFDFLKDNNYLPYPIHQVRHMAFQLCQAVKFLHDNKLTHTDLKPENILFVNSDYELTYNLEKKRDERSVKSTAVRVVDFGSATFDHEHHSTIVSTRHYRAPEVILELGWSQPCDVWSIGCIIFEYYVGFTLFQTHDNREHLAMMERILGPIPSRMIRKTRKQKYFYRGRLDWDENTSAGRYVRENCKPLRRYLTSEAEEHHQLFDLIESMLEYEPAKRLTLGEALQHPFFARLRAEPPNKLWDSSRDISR
Sequence of CLK3 (P49761 whole entry): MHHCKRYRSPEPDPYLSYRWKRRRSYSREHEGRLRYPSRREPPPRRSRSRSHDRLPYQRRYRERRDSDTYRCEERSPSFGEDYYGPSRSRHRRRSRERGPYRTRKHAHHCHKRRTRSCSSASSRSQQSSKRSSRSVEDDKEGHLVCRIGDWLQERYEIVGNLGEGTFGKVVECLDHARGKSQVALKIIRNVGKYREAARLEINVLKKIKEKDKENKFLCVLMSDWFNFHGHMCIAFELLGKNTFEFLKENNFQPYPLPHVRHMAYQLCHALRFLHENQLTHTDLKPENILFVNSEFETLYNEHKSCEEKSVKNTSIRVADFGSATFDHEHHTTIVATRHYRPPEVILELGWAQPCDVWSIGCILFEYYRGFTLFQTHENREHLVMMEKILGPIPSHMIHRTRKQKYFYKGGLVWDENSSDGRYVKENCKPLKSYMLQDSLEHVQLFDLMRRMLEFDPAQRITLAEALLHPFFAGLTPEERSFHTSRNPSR

EC50 [1, 3]: 37 nM
SMILES: CN1CCN(Cc2ccc(NC(=O)c3n[nH]c4ccc(-c5cccnc5)cc34)cn2)CC1 [Compound 36]

EC50 (CLK2; [15]): 1 nM
EC50 [1, 3]: 151 nM
SMILES: O=C(Nc1cc2cc(-c3cncc(NCC4(F)CNC4)n3)ccc2cn1)C1CC1 [Compound 21]
fold induction at 3 µM [2, 4]: 0.02
fold induction at 3 µM [2, 5]: 0.03
fold induction at 3 µM [2, 6]: 0.05
fold induction at 3 µM [2, 7]: 0.15
fold induction at 3 µM [2, 8]: 0.07
fold induction at 3 µM [2, 9]: 0.22
fold induction at 3 µM [2, 10]: 0.07
fold induction at 3 µM [2, 11]: 0.03
fold induction at 3 µM [2, 12]: 0.16
fold induction at 3 µM [2, 13]: 0.48
fold induction at 3 µM [2, 14]: 0.1

EC50 (CLK3): 14 nM
EC50 (CLK2; [15]): 2 nM
SMILES: Cc1nnc(-c2ccc3cnc(NC(=O)c4ccnc(SC5CCN(C)CC5)c4)cc3c2)s1 [Compound 19]

EC50 (CLK3): 13 nM
EC50 (CLK2; [15]): 1 nM
EC50 [1, 3]: 85 nM
SMILES: CN1CCC(Oc2ccc(NC(=O)c3n[nH]c4ccc(-c5cncc(N)c5)cc34)cc2)CC1 [Compound 32]

EC50 (CLK3): 20 nM
EC50 (CLK2; [15]): 1 nM
SMILES: CN1CCC(Oc2cc(NC(=O)c3n[nH]c4cc(F)c(-c5cnn(C)c5)cc34)ccn2)CC1 [Compound 35]

EC50 (CLK3): 9 nM
EC50 [1, 3]: 26 nM
SMILES: CN1CCC(n2cc(C(=O)Nc3cc4cc(-c5cncc6[nH]ccc56)ccc4cn3)cn2)CC1 [Compound 23]
fold induction at 3 µM [2, 4]: 0.02
fold induction at 3 µM [2, 5]: 0.03
fold induction at 3 µM [2, 6]: 0.02
fold induction at 3 µM [2, 7]: 0.11
fold induction at 3 µM [2, 8]: 0.04
fold induction at 3 µM [2, 9]: 0.3
fold induction at 3 µM [2, 10]: 0.09
fold induction at 3 µM [2, 11]: 0.02
fold induction at 3 µM [2, 12]: 0.24
fold induction at 3 µM [2, 13]: 0.25
fold induction at 3 µM [2, 14]: 0.12

EC50 (CLK3): 10 nM
EC50 (CLK2; [15]): 1 nM
EC50 [1, 3]: 41 nM
SMILES: Cc1ccc(-c2cncc3[nH]c(-c4n[nH]c5ccc(-c6cncc(N)c6)nc45)nc23)s1 [Compound 7]

EC50 (CLK3): 313 nM
EC50 (CLK2; [15]): 3 nM
EC50 [1, 3]: 369 nM
SMILES: Cc1n[nH]c2ccc(-c3cncc(OC4CCNCC4(F)F)n3)cc12 (centres unmarked) [Compound 28]

EC50 (CLK3): 18 nM
EC50 (CLK2; [15]): 2 nM
EC50 [1, 3]: 773 nM
SMILES: CN(C)Cc1cncc(-c2ccc3[nH]nc(-c4nc5c(-c6cc(F)cc(CNS(C)(=O)=O)c6)ccnc5[nH]4)c3c2F)c1 [Compound 41]

SMILES: CNc1nc(NCc2ncccn2)c2c(-c3ccc4ncccc4c3)c[nH]c2n1 [Compound 9]
fold induction at 3 µM ([2]; SW480, 24 h, read-out: gene expression fold change CLK1): 0.16
fold induction at 3 µM ([2]; SW480, 24 h, read-out: gene expression fold change CLK2): 0.06
fold induction at 3 µM ([2]; SW480, 24 h, read-out: gene expression fold change CLK3): 0.51
fold induction at 3 µM ([2]; SW480, 24 h, read-out: gene expression fold change DVL2): 0.21
fold induction at 3 µM ([2]; SW480, 24 h, read-out: gene expression fold change LRP5): 0.18
fold induction at 3 µM ([2]; SW480, 24 h, read-out: gene expression fold change SRSF1): 1.91
fold induction at 3 µM ([2]; SW480, 24 h, read-out: gene expression fold change SRSF3): 0.62
fold induction at 3 µM ([2]; SW480, 24 h, read-out: gene expression fold change SRSF4): 0.62
fold induction at 3 µM ([2]; SW480, 24 h, read-out: gene expression fold change SRSF5): 0.56
fold induction at 3 µM ([2]; SW480, 24 h, read-out: gene expression fold change TCF7): 0.2
fold induction at 3 µM ([2]; SW480, 24 h, read-out: gene expression fold change TCF7L2): 0.29
EC50 ([1]; SW480): 92 nM

EC50 [1, 3]: 176 nM
SMILES: CN(C)C(=O)Nc1cncc(-c2ccc3[nH]nc(C(=O)Nc4cccnc4)c3c2)c1 [Compound 34]

EC50 [1, 3]: 86 nM
SMILES: CN1CCN(c2nccc3[nH]c(-c4n[nH]c5cc(F)c(-c6cnn(C)c6)cc45)nc23)CC1 [Compound 42]

EC50 (CLK3): 7 nM
EC50 (CLK2; [15]): 1 nM
EC50 [1, 3]: 13 nM
SMILES: CN(C)Cc1cncc(-c2ccc3[nH]nc(-c4nc5c(-c6cccc(F)c6)cncc5[nH]4)c3c2)c1 [Compound 38]

SMILES: Cc1ccc([N+](=O)[O-])cc1S(=O)(=O)N(C)/N=C/c1cnc2ccc(Br)cn12 [Compound 26]
EC50 (CLK3): 15 nM
EC50 (CLK2): 1 nM
EC50 ([1]; SW480): 39 nM

EC50 (CLK3): 54 nM
EC50 (CLK2; [15]): 2 nM
SMILES: CN1CCN(c2ccc(C(=O)Nc3cc4cc(-c5nncs5)ccc4cn3)cn2)CC1 [Compound 18]

EC50 (CLK3): 40 nM
EC50 (CLK2; [15]): 4 nM
EC50 [1, 3]: 133 nM
SMILES: c1cncc(-c2ccc3[nH]nc(-c4nc5ccncc5[nH]4)c3c2)c1 [Compound 43]

EC50 (CLK3): 14 nM
EC50 (CLK2; [15]): 3 nM
EC50 [1, 3]: 13 nM
SMILES: CCC(=O)Nc1cncc(-c2ccc3[nH]nc(-c4nc5c(-c6cccnc6)cncc5[nH]4)c3c2)c1 [Compound 40]

EC50 [1, 3]: 356 nM
SMILES: Cc1n[nH]c2ccc(-c3cncc(OC[C@@H](N)Cc4ccccc4)c3)cc12 [Compound 3]

EC50 [1, 3]: 253 nM
SMILES: Cc1n[nH]c2ccc(-c3cncc(OC[C@H](N)Cc4ccccc4)n3)cc12 [Compound 2]
fold induction at 3 µM [2, 4]: 0.01
fold induction at 3 µM [2, 5]: 0.05
fold induction at 3 µM [2, 6]: 0.02
fold induction at 3 µM [2, 7]: 0.05
fold induction at 3 µM [2, 8]: 0.07
fold induction at 3 µM [2, 9]: 0.13
fold induction at 3 µM [2, 10]: 0.05
fold induction at 3 µM [2, 11]: 0.02
fold induction at 3 µM [2, 12]: 0.14
fold induction at 3 µM [2, 13]: 0.32
fold induction at 3 µM [2, 14]: 0.13

EC50 (CLK3): 10 nM
EC50 (CLK2; [15]): 4 nM
EC50 [1, 3]: 199 nM
SMILES: CC(C)CC(=O)Nc1cncc(-c2ccc3[nH]nc(-c4nc5c(-c6cc(F)cc(OCCN(C)C)c6)cncc5[nH]4)c3c2)c1 [Compound 39]

EC50 (CLK2; [15]): 1 nM
EC50 [1, 3]: 165 nM
SMILES: Cc1ncc(C(=O)Nc2cc3cc(-c4cnc(C)n4C)ccc3cn2)s1 [Compound 16]
fold induction at 3 µM [2, 4]: 0.22
fold induction at 3 µM [2, 5]: 0.06
fold induction at 3 µM [2, 6]: 0.59
fold induction at 3 µM [2, 7]: 0.18
fold induction at 3 µM [2, 8]: 0.17
fold induction at 3 µM [2, 9]: 1.92
fold induction at 3 µM [2, 10]: 0.61
fold induction at 3 µM [2, 11]: 0.66
fold induction at 3 µM [2, 12]: 0.54
fold induction at 3 µM [2, 13]: 0.21
fold induction at 3 µM [2, 14]: 0.14

EC50 (CLK3): 10 nM
EC50 (CLK2; [15]): 1 nM
SMILES: Cn1ncc(-c2ccc3cnc(NC(=O)c4ccnc(N5CCOCC5)c4)cc3c2)c1CN1CCOCC1 [Compound 13]

EC50 [1, 3]: 13 nM
SMILES: NC(=O)c1ccc(NC(=O)c2n[nH]c3ccc(-c4cncc(CN5CCCCC5)c4)cc23)cn1 [Compound 30]

EC50 [1, 3]: 30 nM
SMILES: Nc1ncc(NC(=O)c2n[nH]c3ccc(-c4cncc(CN5CCCCC5)c4)cc23)cn1 [Compound 33]

SMILES: O=C(Nc1cc2cc(-c3cnn4c3CN(CCF)CC4)ccc2cn1)c1ccnc(OC2CNC2)c1 [Compound 79]
EC50 (CLK3): 44.3 nM
EC50 (CLK2): 4.4 nM

EC50 [1, 3]: 4 nM
SMILES: CN1CCN(c2ccc(NC(=O)c3n[nH]c4ccc(-c5cncc(CN6CCC(F)(F)C6)c5)cc34)cn2)CC1 [Compound 31]

EC50 (CLK3): 161 nM
EC50 (CLK2; [15]): 2 nM
SMILES: CC(C)Oc1ccc(C(=O)Nc2cc3cc(-c4cnc5n4CCNC5)ccc3cn2)cc1 [Compound 17]

EC50 (CLK3): 17 nM
EC50 [1, 3]: 65 nM
SMILES: CN(C)CCN(C)c1ccc(NC(=O)c2n[nH]c3ccc(-c4cncc(CN5CCCCC5)c4)cc23)cn1 [Compound 6]
fold induction at 3 µM [2, 4]: 0.04
fold induction at 3 µM [2, 5]: 0.06
fold induction at 3 µM [2, 6]: 0.03
fold induction at 3 µM [2, 7]: 0.06
fold induction at 3 µM [2, 8]: 0.05
fold induction at 3 µM [2, 9]: 0.1
fold induction at 3 µM [2, 10]: 0.04
fold induction at 3 µM [2, 11]: 0.01
fold induction at 3 µM [2, 12]: 0.1
fold induction at 3 µM [2, 13]: 0.31
fold induction at 3 µM [2, 14]: 0.07

EC50 [1, 3]: 97 nM
SMILES: COc1ccc(NC(=O)c2n[nH]c3ccc(-c4cncc(CO)c4)cc23)cn1 [Compound 37]

EC50 (CLK3): 30 nM
EC50 (CLK2; [15]): 1 nM
SMILES: Cn1cncc1-c1ccc2cnc(NC(=O)c3ccc4c(c3)CNC4)cc2c1 [Compound 15]

— patent US20220062240A1, “METHODS OF TREATING CANCER USING A CLK INHIBITOR” (BioSplice Therapeutics, Inc., priority 2018, published 2022)
